Experimental data taken from patent publication US20100099719A1, “COMPOSITION AND METHOD FOR TREATING PROTEINURIA” (DIEREPHARMA, INC., priority 2008, published 2010).
Where two headings read alike, the source gives them in different places.

How the values were obtained:
[1] = system: streptozotocin-induced diabetic rats; assay: Streptozotocin-induced diabetic nephropathy in rats; assay type: in vivo, Sprague-Dawley rats
Procedure: Diabetic kidney disease in the rat was induced by streptozotocin (STZ) to test the effectiveness of 5-methyl-2(1H)-pyridone (AKF-PD) in preserving kidney function by reducing the level of proteinuria.
Diabetic nephropathy was induced in Sprague-Dawley rats with a single intravenous injection of STZ (45 mg/kg). Streptozotocin was injected in a single dose of 45 mg/kg, i.v., to rats (Male Sprague-Dawley rats (200-250 g). Age-matched control rats received citrate buffer and were used in parallel with diabetic animals. Two days after STZ injection, plasma glucose levels were measured. Rats having plasma glucose levels>250 mg/dL after 4 weeks were selected for the study. Control and diabetic rats were divided into two groups, consisting of 6 animals each. AKF-PD was suspended in 0.5% sodium carboxy methylcellulose (CMC). From 4 to 8 weeks after the initial STZ injection, the first group of control animals received vehicle, and the second group received a suspension of AKF-PD (500 mg/kg per day) orally. Similarly, one group of diabetic rats received vehicle and the second group received AKF-PD (500 mg/kg per day). At the end of 8th week, rats were kept individually in metabolic cages for 24 h to collect urine for the measurements. Renal function was assessed by measuring plasma and urine levels of creatinine and urea and urine albumin excretion. Plasma glucose levels were also measured at 4 weeks and at the end of the experiment to investigate the effect of AKF-PD on glucose levels. Urinary proteins were measured by Bio-Rad protein assay (Bio-Rad, Hercules, Calif.). Blood urea nitrogen and creatinine levels were measured using Beckman analyzers (BUN Analyzer II, and Creatinine Analyzer II Beckman Instruments Inc., Brea, Calif.).

[2] = system: rat UUO model; assay: Unilateral ureteral obstruction (UUO) model, tubulointerstitial injury score; assay type: in vivo, SD rats; conditions: UUO rats; for Tubulointerstitial injury score (TIS): 500 mg/kg/d by gavage
Procedure: Kidney damage and fibrosis were induced by Unilateral Ureteral Obstruction in rat. The reno-protective effect of AKF-PD was evaluated in the rat UUO model.
Fixed tissues were dehydrated in graded alcohol and embedded in paraffin. Sections were stained with hematoxylin & eosin (HE) for general histology. Injury score was evaluated. On Day 7, the kidneys of rats subjected to ureteral obstruction developed a conspicuous tubulointerstitial injury characterized by tubular dilatation and atrophy, interstitial inflammation, and a marked interstitial fibrosis. The damage was more prominent on Day 15. Renal injury was ameliorated after treatments with AKF-PD as indicated by the lower tubulointerstitial injury scores and interstitial fibrosis expansion of these groups, with P<0.05 for all comparisons (Table 2).
Table 2. Comparison of histological scores for interstitial compartment. Eight weeks old male SD rats (180 g ˜220 g) were randomly divided into sham surgical group, disease model UUO group, and AKF-PD (500 mg/kg/d) group. […] The animals of the sham surgical group experienced the same surgical procedure except the ligation step. AKF-PD was administrated by gavage from one day prior to the procedure to 15 days post surgical procedure. Normal saline was administrated in a similar fashion to the rats in the groups of disease model and sham surgical. The animals were sacrificed 15 days after surgical procedure and their left kidney were removed for pathological (HE staining) examination. Histological scoring for interstitial compartment was done according to Radford's method (Predicting renal outcome in IgA nephropathy. J. Am. Soc. Nephrology, 1997; 8:199-207).

[3] = system: rat renal fibroblasts; conditions: in vitro; cited from earlier work
[4] = system: TGF-β; assay: TGF-β protein expression in kidney of rat UUO model (Western blot, densitometry); assay type: in vivo; conditions: obstructed kidney
Source text: A. Western analysis of TGF-β protein expression. Two rats were sacrificed from groups of control sham operated, UUO, and UUO+AKF-PD at day 7 and day 15. Total protein was extracted from the kidney samples and subjected to Western analysis of TGF-β. The protein loading was normalized with actin. Lane 1, control sham at day 7; lane 2, control sham at day 15; lane 3, UUO at day 7; lane 4, UUO+AKF-PD at day 7; lane 5, UUO at day 15; lane 6, UUO+AKF-PD at day 15. B. Comparison of the intensity of bands on a Western blot by densitometry. The bands were scanned by densitometer and expressed as a fold increase over control sham operated rat at day 7, which was taken as 1.
TGF-β is a pro inflammatory cytokine and its overproduction plays critical role in tissue fibrosis. Using UUO model, we analyzed the effect of AKF-PD on TGF-β protein expression by Western blot. […] Densitometry analyses of the intensity of the bands indicate that TGF-β protein expression in obstructed kidneys was increased by 4.9- and 6.5-fold than those in the Sham group on Days 7 and 15, respectively.

[5] = system: p38; assay: LPS-induced p38 activation in RAW264.7 macrophages (Western blot, phospho-p38); assay type: cell-based, mouse; conditions: RAW264.7 cells pretreated 100 and 500 μg/ml, 4 h; LPS 10 ng/ml, 30 min
Procedure: Mouse macrophage RAW264.7 cells were pretreated with AKF-PD (100 and 500 μg/ml, 4 h) or PFD (100 and 500 μg/ml, 4 h) and then exposed to LPS (10 ng/ml, 30 min). Total cell lysates were processed by SDS-PAGE and membranes blotted with a phosphospecific p38 and normalized with p38.
The MAPK family of proteins comprises of three-tiered cascades of Erk1/2, p38, and JNK. The p38 kinase is activated by phosphorylation of a conserved Thr-Gly-Tyr motif in the activation loop. The activated p38 is then able to phosphorylate a wide variety of targets in the cytoplasm and nucleus, resulting in cellular responses such as apoptosis, inflammation, and fibrosis. We first analyzed the anti-inflammatory properties of AKF-PD in p38 signaling in lipopolysaccharide (LPS)-stimulated mouse macrophages RAW264.7 cells. Cells are pre-treated with AKF-PD or pirfenidone (PFD) for 4 hours and then stimulated by treatment with LPS. […] No effects on total p38 protein levels were observed showing that AKF-PD and PFD have no effect on protein stability. […] The potential upstream targets for AKF-PD include upstream kinases MAPKK3 (MKK3) and MAPKK6 (MKK6).

[6] = system: TNF-α; assay: LPS-stimulated TNF-α protein synthesis and secretion in RAW264.7 cells (ELISA); assay type: cell-based, mouse; conditions: LPS 100 ng/ml 8 h; for inhibition at 300 µg/mL: dose of 300 μg/ml
Procedure: RAW264.7 cells were pre-treated with AKF-PD for 4 hours at the following doses: 0, 30 μg/ml, 100 μg/ml, and 300 μg/ml. Cells were then stimulated by the treatment with LPS at 100 ng/ml for 8 hours. Cell lysate was prepared from the harvested cells. Media from the cell culture were collected, concentrated 10-fold. Both cell lysate (B) and media (A) were subjected to ELISA assay (OptEIA™) specific for mouse TNF-α according to the manufacturer's instructions (BD Biosciences). Each column with error bar represents the average of triplicate TNF-α assay results and the standard deviation (SD). Statistical comparisons for AKF-PD treated cells relative to the controls indicate P<0.001 for secreted levels (A) at all three doses; and P<0.01 for cellular levels (B) at doses of 100 and 300 μg/ml, respectively.
The effect of AKF-PD on TNF-α protein synthesis and secretion was analyzed in LPS-stimulated RAW264.7 cells. Cells were pretreated with AKF-PD and then stimulated by LPS. Both secreted and cellular levels of TNF-α protein were determined. […] Therefore, the exposure of RAW264.7 cells to AKF-PD exerted a significant and dose-dependent suppression of levels of both cell-associated and secreted TNF-α protein.

[7] = system: TNF-α mRNA; assay: LPS-stimulated TNF-α mRNA synthesis in RAW264.7 macrophages (real time PCR); assay type: cell-based, mouse; conditions: LPS 10 ng/ml 20 h; for inhibition of LPS-stimulated TNF-α mRNA synthesis: dose of 500 μg/ml; for inhibition on LPS-stimulated TNF-α mRNA synthesis: pre-treated 4 h at 10, 100, 500 μg/ml
Procedure: Mouse macrophage RAW264.7 cells were pre-treated with AKF-PD or PFD for 4 hours at the following doses: 0, 10 μg/ml, 100 μg/ml, and 500 μg/ml. Cells are then stimulated by treatment with LPS at 10 ng/ml for 20 hours. Expression of TNF-α mRNA is assayed by a quantitative real time PCR analysis using the TaqMan PCR core reagent kit (Applied Biosystems). TNF-α gene expression in the control non-treated cells was taken as 1 and regarded as control. All the other values were expressed as fold increase of the control. The mouse beta actin gene was used as endogenous control. Each column with error bar represents the mean mRNA level±SD of duplicate samples. Statistical comparisons for all three AKF-PD doses relative to control indicate p<0.01; PFD at the doses of 100 and 500 μg/ml relative to control indicate P<0.01.
We next investigated the effect of AKF-PD on TNF-α transcription.

[8] = system: mild chronic anti-GBM nephritis in rats; conditions: rat model of nephritis; cited from earlier work
[9] = system: patients with focal segmental glomerulosclerosis; conditions: cited from earlier work
[10] = DN (diabetic) rats + AKF-PD 500 mg/kg per day p.o., 4 weeks, mean ± SEM (n = 6)

## Cc1ccc(=O)n(-c2cccc(F)c2)c1 [AKF-PD, 1-(3′-Fluorophenyl)-5-Methyl-2(1H)-Pyridone]
[1]; DN (diabetic) rats + AKF-PD 500 mg/kg per day p.o., 4 weeks, 24 h urine, mean ± SEM (n = 6)
  Urine output: 15.25 ± 1.75 mL
[1]; [10]
  Blood urea nitrogen: 18.88 ± 1.50 mg/dL
  Serum creatinine: 0.75 ± 0.13 mg/dL
  Urinary albumin excretion: 6.10 ± 0.23 mg/dL
[1]; diabetic rats, 500 mg/kg per day from 4 to 8 weeks
  renal dysfunction in diabetic rats: significantly attenuated
[2]; Day 7
  Tubulointerstitial injury score (TIS): 2.64 ± 0.79 #
[2]; Day 15
  Tubulointerstitial injury score (TIS): 3.82 ± 0.43 #
[2]; P<0.05
  renal injury (tubulointerstitial injury scores and interstitial fibrosis expansion): ameliorated
[3]
  proliferation of rat renal fibroblasts: inhibit the proliferation
[4]; Day 7, UUO rats
  reduction of TGF-β protein expression: 55%
[4]; Day 15, UUO rats
  reduction of TGF-β protein expression: 71%
[5]
  LPS-induced p38 activation (phosphorylation): significantly blocked
  total p38 protein levels: No effects
[6]; 30, 100, 300 μg/ml pre-treatment 4 h
  inhibition on TNF-α protein levels: dose-dependent inhibition
[6]; Mus musculus, dose of 100 μg/ml, read-out: inhibition of secreted levels of TNF-α
  inhibition at 100 µg/mL: 64%
[6]; Mus musculus, read-out: inhibition of cellular levels of TNF-α
  inhibition at 300 µg/mL: ~50%
[6]; Mus musculus, read-out: inhibition of secreted levels of TNF-α
  inhibition at 300 µg/mL: 89%
[7]
  inhibition of LPS-stimulated TNF-α mRNA synthesis: Approximately 50%
  inhibition on LPS-stimulated TNF-α mRNA synthesis: dose-dependent inhibition

## Cc1ccc(=O)n(-c2ccccc2)c1 [PFD, pirfenidone, reference compound]
[5]
  LPS-induced p38 activation (phosphorylation): significantly blocked
  total p38 protein levels: No effects
[7]
  inhibition of LPS-stimulated TNF-α mRNA synthesis: Approximately 50%
  inhibition on LPS-stimulated TNF-α mRNA synthesis: dose-dependent inhibition
[8]
  urinary protein excretion: caused a decline
[9]; clinical data, open-label trial
  effect on proteinuria: does not have any effect
[9]; with pirfenidone therapy, 18 patients, median of 13-month treatment, baseline period −0.61
  monthly deterioration in GFR (median): −0.45 ml/min per 1.73 m^2
